Reference: patent publication US10927139B2, “Chemically cleavable group” (Tagworks Pharmaceuticals B.V., priority 2012, dated 2021)

Key:
[1] = Tetrazine-induced doxorubicin release from Axial-TCO-1-Doxorubicin in PBS/MeCN (LCMS); conditions: 10 equiv. tetrazine; 25% MeCN in PBS; 37° C.; LCMS at 4 h (n = 3)
Protocol: PBS/MeCN (1 mL, 3/1), preheated at 37° C. and TCO-2-doxorubicin (10 μL of a 2.5 mM solution in DMSO, 1 eq.) were added to a preheated injection vial. Tetrazine (10 μL of a 25 mM solution in DMSO, 10 eq.) was added and the vial was vortexed. After incubation for 1 hour at 37° C., the vial was placed in LC-MS autosampler at 10° C. LC-MS analysis was performed using a 5% to 100% H2O/MeCN gradient over 11 minutes with a C18 reverse-phase column at 35° C. A control sample containing only TCO-2-doxorubicin (1 eq), as well as a sample containing only doxorubicin (1 eq.), was analyzed under the same conditions. All tetrazine containing samples were measured twice and the doxorubicin control sample was run after every three other samples during an overnight program. […] The calculated percentage of release was corrected when it was observed that the TCO-2-doxorubicin was not fully converted to inv-DA adduct(s). This was done by quantification of remaining dox-TCO, but full conversion was almost always observed. Peak areas (used for doxorubin quantification) were determined at λ=470-500 nm where characteristic doxorubicin absorption takes place and peak integration was done by hand.
(§1) In a similar fashion as Example 3, the release of doxorubicin from TCO-1-doxorubucin as induced by tetrazines 1, 8, 9 in PBS/ACN and in serum was measured.

[2] = Tetrazine-induced doxorubicin release from Axial-TCO-1-Doxorubicin in serum; set-up: species or system mouse; conditions: 10 equiv. tetrazine; 50% serum; 37° C.; LCMS at 4 h (n = 3)
Protocol: as §1
Serum experiments were conducted as follows:
TCO-1-doxorubucin (6.25×10^−8 mol) was dissolved in DMSO (0.050 mL), and PBS (0.475 mL) was added slowly in aliquots of 0.010 mL, followed by mouse serum (0.475 mL). A portion of this mixture (0.200 mL) was equilibrated at 37° C., and a solution of tetrazine (1.25×10^−7 mol) in DMSO (0.005 mL) was added, and the solution was thoroughly mixed and incubated at 37° C. in the dark for 4 h. Subsequently, cold MeCN (0.200 mL) was added, followed by centrifugation at 13400 rpm for 5 min. The supernatant was used for further analysis by HPLCMS/PDA analysis to determine the release of doxorubicin.

[3] = Tetrazine-induced release of bead-bound radioactivity from streptavidin beads loaded with 125I-Rtx-TCO-biotin; conditions: beads with 21 μg ^125I-Rtx-TCO-biotin/mg; 1.5×10^3 eqs tetrazine; 1 hour at room temperature; gamma counting
Protocol: The bead suspension containing 21 μg ^125I-Rtx-TCO-biotin/mg beads (1 mL in PBS) was divided in two aliquots and reacted with a large excess of 3,6-dimethyl-1,2,4,5-tetrazine (8, 1.5×10^3 eqs with respect to Rtx) in DMSO (5 μL) or with DMSO alone (control) and incubated for 1 hour at room temperature on a roller bench. […] SDS-PAGE confirmed that the activity in the supernatant was due to the release of ^125I-Rtx from the beads (FIG. 4), thus confirming cleavage of the Rtx-TCO-biotin linker upon reaction with the 3,6-dimethyl-1,2,4,5-tetrazine.

## Cc1nnc(C)nn1 [tetrazine 8, 3,6-dimethyl-1,2,4,5-tetrazine]
[1]
  Doxorubicin release (%) from Axial-TCO-1-Doxorubicin, PBS/MeCN (3/1): 79 ± 3%
[2]
  Doxorubicin release (%) from Axial-TCO-1-Doxorubicin, Serum: 75 ± 4%
[3]
  release of the bead-bound radioactivity: 37%
